The source of these data is patent publication US20190125712A1, “COMPOUND FOR ENHANCING ACTIVITY OF ANTIBIOTIC COMPOSITIONS AND OVERCOMING DRUG RESISTANCE” (SHOOLINI UNIVERSITY OF BIOTECHNOLOGY AND MANAGEMENT SCIENCES, priority 2015, published 2019).

≈ marks a conversion by molar mass, not a printed value. Read-outs that look alike come from different tables or passages of the source. Peptide text beside a SMILES is read from it. * marks the point of attachment. βNA = c1ccc2cc(N*)ccc2c1

The subject of data set [1] is K. pneumonia Strain 52145 (Drug sensitive or control). The data set can be described thus: MIC, ethyl gallate as activity enhancer of antibiotics, drug sensitive K. pneumonia. In kind it is cell-based, Klebsiella pneumonia. As to conditions: for MIC: Klebsiella pneumoniae; for MIC Antibiotic + ethyl gallate: combination with ethyl gallate; for Minimum Inhibitory Concentration (MIC): group C: antibiotic + Ethyl gallate 1000 μg/ml; for Fold decrease in antibiotic concentration: on addition of ethyl gallate. On the procedure:
(§1) This was carried out to assess the potential of the compound to enhance antimicrobial activity and overcome antibacterial resistance.
(§2) The resistant & sensitive control strains of K. pneumonia were procured from Dr. Enrique Llobet, CIBERES, Bunyola, Spain, Dr. Mazzariol of Verona University, Italy and one sensitive control strain were procured from IMTECH, Chandigarh (Table-2). Pseudomonas aeruginosa control cultures (Sensitive & Resistant) were procured from Dr. Thilo Kohler, University of Geneva, and Department of Microbiology and Molecular Medicine Geneve, Switzerland and one sensitive control strain were procured from IMTECH, Chandigarh (Table-3).

The test system of data set [2] is P. aeruginosa Strain MTCC-471 (Drug sensitive or control). The data set can be described thus: MIC, ethyl gallate as activity enhancer of antibiotics, drug sensitive P. aeruginosa. As to conditions: for MIC: Pseudomonas aeruginosa, MTCC471, agent alone (group A ethyl gallate alone, group B antibiotics alone), read-out: Minimum Inhibitory Concentration (MIC); for MIC / Minimum Inhibitory Concentration (MIC): strain MTCC-471; for MIC Antibiotic + ethyl gallate: combination with ethyl gallate; for Minimum Inhibitory Concentration (MIC): group C: antibiotic + Ethyl gallate 1000 μg/ml; for Fold decrease in antibiotic concentration: on addition of ethyl gallate. It counts as cell-based, Pseudomonas aeruginosa. On the procedure: as §1, §2

For data set [3], the system named is P. aeruginosa PS11 (Drug resistant). Description: MIC, ethyl gallate as activity enhancer of antibiotics, drug resistant P. aeruginosa. The settings on record: for MIC: strain PS11; for MIC Antibiotic + ethyl gallate: combination with ethyl gallate; for Fold decrease in antibiotic concentration: on addition of ethyl gallate. In kind it is cell-based, Pseudomonas aeruginosa. On the procedure:
as §1
K. pneumonia isolate was collected from Gian Sagar medical college, Patiala and characterized in Immuno-parasitoloy Lab, Shoolini University, Solan for multidrug resistance. P. aeruginosa drug resistant strain was collected from Gian Sagar medical college, Patiala and characterized in Immunoparasitoloy Lab, Shoolini University, Solan.

The subject of data set [4] is K. pneumonia 1740 knockout (Drug resistant). It counts as cell-based, Klebsiella pneumonia. The settings on record: for MIC Antibiotic + ethyl gallate: combination with ethyl gallate; for MIC: group C: antibiotic + Ethyl gallate 1000 μg/ml, strain 1740 knockout; for Fold decrease in antibiotic concentration: on addition of ethyl gallate. On the procedure: as §1, §2
Data set [5] can be described thus: Solubility of the extracted compound. It counts as physicochemical. The settings on record: compound extracted from T. chebula. On the procedure: Then column chromatography was performed on silica gel to extract the compound. 6 fractions for T. chebula plant were obtained by column chromatography. All fractions of T. chebula were subjected for their synergistic activity. The fraction showing synergistic activity was then characterized to know the physical properties of bioactive molecule and the molecular weight of bioactive molecule was determined by LCMS and the structure was elucidated by NMR.

Data set [6] has as its system Pseudomonas aeruginosa. As to conditions: against Pseudomonas aeruginosa; Barrett J F (2001); cited from earlier work.
The mark [7] stands for this setting: Table 4 (K. pneumonia, both strains), agent alone, read-out: MIC.
The mark [8] stands for this setting: agent alone (group A ethyl gallate alone, group B antibiotics alone), strain 52145, read-out: Minimum Inhibitory Concentration (MIC).
[9] abbreviates: Sensitive Strain, K. pneumonia 52145.
Setting [10] is: Sensitive Strain, P. aeruginosa MTCC-471.
[11] abbreviates: Pseudomonas aeruginosa, agent alone (group A ethyl gallate alone, group B antibiotics alone), read-out: MIC.
Where [12] appears, read: Resistant Strain, P. aeruginosa PS11.
Where [13] appears, read: group C: antibiotic + Ethyl gallate 1000 μg/ml.
[14] abbreviates: Resistant Strain, K. pneumonia 1740 knockout.

As to `O=C(N[C@H](CO)[C@H](O)c1ccc([N+](=O)[O-])cc1)C(Cl)Cl` [Chloramphenicol], the MIC in data set [1] (setting [7]) came out at 2 µg/mL; in data set [1] (setting [8]), 2 µg/mL; in data set [2] it was 1 µg/mL; in data set [3] (setting [11]) it was 2 µg/mL; in data set [3] (setting [13]), 1.00 µg/mL; in data set [4], 0.500 µg/mL. In addition, the “MIC Antibiotic Alone” value in data set [1] (setting [9]) came to 2.000; in data set [2] (setting [10]) it was 1 µg/mL; in data set [3] (setting [12]) it was 2 µg/mL; in data set [4] (setting [14]), 2 µg/mL (≈ 6.19 µM). For the same molecule, the “MIC Antibiotic + ethyl gallate” value in data set [1] (setting [9]) was found to be 1.000; in data set [2] (setting [10]) it was 0.05 µg/mL; in data set [3] (setting [12]), 1 µg/mL; in data set [4] (setting [14]) it was 0.5 µg/mL. Further, the “Minimum Inhibitory Concentration (MIC)” value came out at 1.000 µg/mL in data set [1] (strain 52145) and 0.050 µg/mL in data set [2]. Further, the “Fold decrease in antibiotic concentration” value in data set [1] (setting [9]) stood at 2 fold; in data set [2] (setting [10]), 20 fold; in data set [3] (setting [12]), 2 fold; in data set [4] (setting [14]) it was 4 fold.

`O=C(O)c1cn(C2CC2)c2cc(N3CCNCC3)c(F)cc2c1=O` [Ciprofloxacin]: the MIC in data set [1] (setting [8]) was determined as 0.06 µg/mL; in data set [3] (setting [11]) it was 2 µg/mL; in data set [3] (setting [13]) it was 1.00 µg/mL; in data set [4] it was 0.003 µg/mL. Moreover, the “MIC Antibiotic Alone” value in data set [1] (setting [9]) was found to be 0.060; in data set [3] (setting [12]), 2 µg/mL. Also, the “MIC Antibiotic + ethyl gallate” value in data set [1] (setting [9]) stood at 0.003; in data set [2] (setting [10]), 0.06 µg/mL; in data set [3] (setting [12]) it was 1 µg/mL; in data set [4] (setting [14]) it was 0.003 µg/mL. Further, the “Minimum Inhibitory Concentration (MIC)” value was found to be 0.003 µg/mL in data set [1] (strain 52145) and 0.060 µg/mL in data set [2].

For the molecule `CCOC(=O)c1cc(O)c(O)c(O)c1` [Ethyl gallate, ethyl gallate], the solubility entry in data set [5] is “soluble in methanol and water”. Moreover, the MIC in data set [1] (setting [7]) was determined as 2 µg/mL; in data set [1] (setting [8]), 2 µg/mL; in data set [2] it was 0.06 µg/mL; in data set [3] (setting [11]), 2 µg/mL. In addition, the “MIC Ethyl gallate” value in data set [1] (Sensitive Strain, K. pneumonia 52145, ethyl gallate alone) came out at 2.000; in data set [2] (Sensitive Strain, P. aeruginosa MTCC-471, ethyl gallate alone), 0.06 µg/mL; in data set [3] (Resistant Strain, P. aeruginosa PS11, ethyl gallate alone) it was 2 µg/mL; in data set [4] (Resistant Strain, K. pneumonia 1740 knockout, ethyl gallate alone), 2 µg/mL (≈ 10.1 µM).

Take `N=C(N)NCCC[C@H](NC(=O)[C@@H](N)Cc1ccccc1)C(=O)Nc1ccc2ccccc2c1` [PAβN, L-phenylalanyl-L-arginyl-b naphthylamide] (H-Phe-Arg-βNA): the “potentiation of the activity of levofloxacin” value in data set [6] is 8 fold.

On to `CN(C)[C@@H]1C(O)=C(C(N)=O)C(=O)[C@@]2(O)C(O)=C3C(=O)c4c(O)cccc4[C@@](C)(O)[C@H]3C[C@@H]12` [Tetracycline], for which the MIC in data set [1] (setting [7]) came to 2 µg/mL; in data set [1] (setting [8]) it was 2 µg/mL; in data set [2], 0.125 µg/mL; in data set [3] (setting [11]) it was 2 µg/mL; in data set [3] (setting [13]), 0.50 µg/mL; in data set [4], 0.500 µg/mL. In addition, the “MIC Antibiotic Alone” value was 2.000 in data set [1] (setting [9]), 0.125 µg/mL in data set [2] (setting [10]), 2 µg/mL in data set [3] (setting [12]) and 2 µg/mL (≈ 4.5 µM) in data set [4] (setting [14]). Further, the “MIC Antibiotic + ethyl gallate” value in data set [1] (setting [9]) amounted to 0.500; in data set [2] (setting [10]), 0.06 µg/mL; in data set [3] (setting [12]), 0.5 µg/mL; in data set [4] (setting [14]), 0.5 µg/mL. For the same molecule, the figures for the “Minimum Inhibitory Concentration (MIC)” value in data set [1] (strain 52145) and in data set [2] were 0.500 µg/mL and 0.060 µg/mL, respectively. For the same molecule, the “Fold decrease in antibiotic concentration” value in data set [1] (setting [9]) came out at 4 fold; in data set [2] (setting [10]), 2 fold; in data set [3] (setting [12]) it was 4 fold; in data set [4] (setting [14]), 4 fold.
